{
  "source": "patent US20160038519A1",
  "about": "“ADMINISTRATION OF KARENITECIN FOR THE TREATMENT OF ADVANCED OVARIAN CANCER, INCLUDING CHEMOTHERAPY-RESISTANT AND/OR THE MUCINOUS ADENOCARCINOMA SUB-TYPES” (BioNumerik Pharmaceuticals, Inc., priority 2014, published 2016)",
  "key": {"[1]": {"test_system": "beagle dogs", "settings": "dog, in vivo, iv"}, "[2]": {"test_system": "stage III/IV advanced epithelial ovarian cancer resistant or refractory to platinum- and taxane-based regimens", "settings": "for CA-125 marker level, low: after reduction; for CA-125 marker level, high: before reduction", "method": "Such Phase III clinical trial is sometimes referred to herein as the “Karenitecin Phase III Trial”.\nThe Primary Endpoint of the disclosed Karenitecin Phase III Trial was Progression Free Survival (“PFS”); which was defined as the time period from the date of randomization to the date of first radiographically-documented Progressive Disease (“PD”) or date of death due to any cause, taking the event date that occurs first. The date of PD was determined by radiographical objective disease (RECIST) measurement. The Secondary Endpoints of the disclosed Karenitecin Phase III Trial included: (i) Overall Survival (hereinafter “OS”), defined as the time from the date of randomization to the date of death due to any cause; (ii) Incidence of anemia, defined as the proportion of subjects who experience ≧grade 3 anemia based on National Cancer Institute Common Terminology Criteria for Adverse Events (NCI-CTCAE) criteria at any time post-baseline after receiving study treatment; (iii) Incidence of neutropenia (including febrile neutropenia), defined as the proportion of subjects who experience ≧grade 3 neutropenia based on NCI-CTCAE criteria at any time post-baseline after receiving study treatment; and (iv) Incidence of thrombocytopenia, defined as the proportion of subjects who experience ≧grade 3 thrombocytopenia based on NCI-CTCAE criteria at any time post-baseline after receiving study treatment.\nApproximately 80 study centers participated in this clinical study. The primary endpoint was Progression Free Survival (PFS); defined as the time period from the date of randomization to the date of first radiographically documented progressive disease or disease progression (“PD”) or date of death due to any cause, taking the event date that occurs first.\nThe primary endpoint was Progression Free Survival (PFS); defined as the time period from the date of randomization to the date of first radiographically documented progressive disease (PD) or date of death due to any cause, taking the event date that occurs first. The date of PD was determined by radiographically objective disease (RECIST) measurement.\n• Overall Survival (OS), defined as the time from the date of randomization to the date of death due to any cause. • Incidence of anemia, defined as the proportion of subjects who experience ≧grade 3 anemia based on National Cancer Institute Common Terminology Criteria for Adverse Events (NCI-CTCAE) criteria at any time post-baseline after receiving study treatment. • Incidence of neutropenia (including febrile neutropenia), defined as the proportion of subjects who experience ≧grade 3 neutropenia based on NCI-CTCAE criteria at any time post-baseline after receiving study treatment. • Incidence of thrombocytopenia, defined as the proportion of subjects who experience ≧grade 3 thrombocytopenia based on NCI-CTCAE criteria at any time post-baseline after receiving study treatment.\nDuring this period, subjects received either Karenitecin (1.0 mg/m^2/day administered as a 60-minute intravenous infusion) or Topotecan (1.5 mg/m^2/day administered as a 30-minute intravenous infusion) daily for 5 consecutive days, every 21 days (one treatment cycle=21 days)."}, "[3]": {"experiment": "Lactone stability in humans", "format": "in vivo, human"}, "[4]": {"test_system": "panel of over twenty (20) human cancer cell lines", "experiment": "In vitro studies on a panel of over twenty human cancer cell lines", "format": "cell-based"}, "[5]": {"settings": "Adenocarcinoma (grade ≧2) not otherwise specified, P-value=0.3700"}, "[6]": {"settings": "ECOG Performance Status 0, P-value=0.0249"}, "[7]": {"settings": "ECOG Performance Status 2, P-value=0.7481"}, "[8]": {"settings": "FIGO Stage IIIB, P-value=0.6225"}, "[9]": {"settings": "FIGO Stage IV, first 254 PFS events, P-value=0.0260"}, "[10]": {"settings": "Histological Stage: G1-well differentiated, P-value=0.8561"}, "[11]": {"settings": "Histological Stage: G2-moderately differentiated, P-value=0.2982"}, "[12]": {"settings": "Histopathology class: serous adenocarcinoma, P-value=0.2829"}, "[13]": {"settings": "Mucinous adenocarcinoma subtype"}, "[14]": {"settings": "Ovary as primary site of disease, P-value=0.2606"}, "[15]": {"settings": "overall trial population, P-value=0.261"}},
  "note": "Like-named read-outs stand apart in the source and are kept apart here.",
  "data": [
    {"smiles": "CC[C@@]1(O)C(=O)OCc2c1cc1n(c2=O)Cc2c-1nc1ccccc1c2CC[Si](C)(C)C", "note": "[Karenitecin, (4S)-4-ethyl-4-hydroxy-11-[2-(trimethylsilyl)ethyl]-1H-pyrano[3′:4′:6,7]indolizino[1,2-b]quinoline-3,14(4H,12H)-dione]", "values": [
      {"measurement": "Toxicities observed", "setting": "[1]", "result": "reversible myelosuppression (predominantly neutropenia)"},
      {"measurement": "Overall survival hazard ratio", "setting": "[2]; Adenocarcinoma (grade ≧2) not otherwise specified, P-value 0.7893", "result": 0.898},
      {"measurement": "Median PFS advantage in favor of Karenitecin", "setting": "[2]; [5]", "result": 2.7, "unit": "month"},
      {"measurement": "PFS Hazard Ratio", "setting": "[2]; [5]", "result": 0.684},
      {"measurement": "PFS Hazard Ratio", "setting": "[2]; Best response SD after 6 cycles in a first-line setting, P-value=0.9908", "result": 0.992},
      {"measurement": "Median PFS advantage in favor of Karenitecin", "setting": "[2]; Best response stable disease (SD) after 6 cycles in a first-line setting, P-value=0.9908", "result": 3, "unit": "month"},
      {"measurement": "Median PFS advantage in favor of Karenitecin", "setting": "[2]; [6]", "result": 3.9, "unit": "month"},
      {"measurement": "PFS Hazard Ratio", "setting": "[2]; [6]", "result": 0.662},
      {"measurement": "Median PFS advantage in favor of Karenitecin", "setting": "[2]; [7]", "result": 1.5, "unit": "month"},
      {"measurement": "PFS Hazard Ratio", "setting": "[2]; [7]", "result": 0.896},
      {"measurement": "Median PFS advantage in favor of Karenitecin", "setting": "[2]; [8]", "result": 4.2, "unit": "month"},
      {"measurement": "PFS Hazard Ratio", "setting": "[2]; [8]", "result": 0.722},
      {"measurement": "Overall survival hazard ratio", "setting": "[2]; FIGO Stage IV, P-value 0.4516", "result": 0.892},
      {"measurement": "Median PFS advantage in favor of Karenitecin", "setting": "[2]; FIGO Stage IV, P-value=0.0556", "result": 2.7, "unit": "month"},
      {"measurement": "PFS Hazard Ratio", "setting": "[2]; FIGO Stage IV, P-value=0.0556", "result": 0.741},
      {"measurement": "Median PFS advantage in favor of Karenitecin", "setting": "[2]; [9]", "result": 2.8, "unit": "month"},
      {"measurement": "PFS Hazard Ratio", "setting": "[2]; [9]", "result": 0.669},
      {"measurement": "Overall survival hazard ratio", "setting": "[2]; Histological Stage: G1-well differentiated, P-value 0.9612", "result": 0.9674},
      {"measurement": "Median PFS advantage in favor of Karenitecin", "setting": "[2]; [10]", "result": 1.7, "unit": "week"},
      {"measurement": "PFS Hazard Ratio", "setting": "[2]; [10]", "result": 0.904},
      {"measurement": "Median PFS advantage in favor of Karenitecin", "setting": "[2]; [11]", "result": 2.5, "unit": "month"},
      {"measurement": "PFS Hazard Ratio", "setting": "[2]; [11]", "result": 0.835},
      {"measurement": "Overall survival hazard ratio", "setting": "[2]; Histopathology Class: Undifferentiated carcinoma, P-value 0.6426", "result": 0.701},
      {"measurement": "Median PFS advantage in favor of Karenitecin (as compared with Topotecan)", "setting": "[2]; Histopathology class: Mucinous adenocarcinoma", "result": 2, "unit": "month"},
      {"measurement": "Median PFS advantage in favor of Karenitecin", "setting": "[2]; [12]", "result": 1.6, "unit": "month"},
      {"measurement": "PFS Hazard Ratio", "setting": "[2]; [12]", "result": 0.873},
      {"measurement": "Median PFS", "setting": "[2]; [13]", "result": "approximately 17.8 weeks"},
      {"measurement": "Overall survival (OS), third quartile", "setting": "[2]; [13]", "result": 35, "unit": "months"},
      {"measurement": "Overall survival hazard ratio (Karenitecin vs Topotecan)", "setting": "[2]; Mucinous adenocarcinoma subtype, P-value 0.7321", "result": 0.841},
      {"measurement": "Median PFS advantage in favor of Karenitecin", "setting": "[2]; [14]", "result": 6.5, "unit": "week"},
      {"measurement": "PFS Hazard Ratio", "setting": "[2]; [14]", "result": 0.885},
      {"measurement": "CA-125 marker level, low", "setting": "[2]; another patient", "result": 24, "unit": "U/ML"},
      {"measurement": "CA-125 marker level, high", "setting": "[2]; another patient", "result": 237, "unit": "U/ML"},
      {"measurement": "Reduction of grade 4 neutropenia in comparison to the Topotecan arm", "setting": "[2]; female, human, in vivo", "result": 38.2, "unit": "%"},
      {"measurement": "Reduction of number of grade 3 or 4 anemia events in comparison to the Topotecan arm", "setting": "[2]; female, human, in vivo", "result": 27.3, "unit": "%"},
      {"measurement": "Reduction of number of grade 3 or 4 thrombocytopenia events in comparison to the Topotecan arm", "setting": "[2]; female, human, in vivo", "result": 37.4, "unit": "%"},
      {"measurement": "Safety concerns noted by the independent DSMB", "setting": "[2]; in vivo", "result": "no safety concerns"},
      {"measurement": "CA-125 marker level, high", "setting": "[2]; one patient", "result": 2072, "unit": "U/ML"},
      {"measurement": "Median PFS", "setting": "[2]; overall trial population, IRC-determined", "result": "approximately 24.3 weeks"},
      {"measurement": "Median PFS advantage in favor of Karenitecin (as compared with Topotecan)", "setting": "[2]; [15]", "result": "greater than 6 week"},
      {"measurement": "PFS Hazard Ratio (Karenitecin vs Topotecan)", "setting": "[2]; [15]", "result": 0.885},
      {"measurement": "Median PFS", "setting": "[2]; refractory or resistant and/or mucinous subpopulation", "result": "approximately 26.9 weeks"},
      {"measurement": "PFS Hazard Ratio (Karenitecin vs Topotecan)", "setting": "[2]; refractory or resistant and/or mucinous subpopulation, first 254 subjects, P-value=0.0849", "result": 0.770},
      {"measurement": "Median PFS in favor of Karenitecin (as compared with Topotecan)", "setting": "[2]; refractory or resistant to platinum/taxane and/or mucinous sub-type subpopulation, first 254 subjects, P-value=0.0849", "result": "approximately 8.2 weeks"},
      {"measurement": "PFS Hazard Ratio", "setting": "[2]; resistant subject sub-population, P-value=0.144", "result": 0.822},
      {"measurement": "CA-125 marker level, low", "setting": "[2]; same patient", "result": 167, "unit": "U/ML"},
      {"measurement": "Lactone stability", "setting": "[3]", "result": "approximately 85%"},
      {"measurement": "Antitumor potency compared with Topotecan or SN-38", "setting": "[4]", "result": "significantly more potent"}
    ]}
  ]
}
